Measured values: the supplement of paper PMC10307832

Key:
Assay in all cases: relative viability (nuclei count vs DMSO), 5 days (fraction); higher = more cells survive
[1] = compound: COC1=CC=C(C=C1)CN2C=CC3=C2C=C(C=C3)C(=O)NO
Procedure, shortened: (§1)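 Hoechst staining, done together with fixation and permeabilisation, marked nuclei for 4× imaging and MetaXpress counting. This followed 5 days without medium change after lung cancer cell lines, kept overnight at 37 °C in 1536-well plates, were pinned with five library-drug doses (not always all listed) spaced by √10 on vehicle-anchored plates. Viability is the ratio of treated-well to vehicle-well nuclei, expressed as a median across plates. Plates passed only at control CV below 25% with at least one doubling.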

Veliparib = compound: C[C@]1(c2nc3c(C(N)=O)cccc3[nH]2)CCCN1 [Veliparib]
Procedure, shortened: as §1

[2] = compound: COC1=CC=C(C=C1)CN2C=CC3=C2C=C(C=C3)C(=O)NO + Nc1ncn([C@H]2C[C@H](O)[C@@H](CO)O2)c(=O)n1 [Decitabine] (partner 2 µM)
Procedure, shortened: (§2)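 Values are medians from duplicate plates. Each reflects relative viability, defined as the nuclei count of treated wells over that of vehicle wells. Lung cancer cell lines in 1536-well plates were pin-tool dosed one day after seeding with one drug alone or with a fixed anchor-drug dose plus five library-drug doses (not always all listed) in √10 steps, then fixed, stained and imaged at 4× after 5 days.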

Veliparib + Linsitinib = compound: C[C@]1(c2nc3c(C(N)=O)cccc3[nH]2)CCCN1 [Veliparib] + C[C@]1(O)C[C@@H](c2nc(-c3ccc4ccc(-c5ccccc5)nc4c3)c3c(N)nccn32)C1 [Linsitinib] (partner 1 µM)
Procedure, shortened: as §2

SW 1573 showed a relative viability ([1]; 0.253 µM) of 1.05, a relative viability ([1]; 0.8 µM) of 1.09 and a relative viability ([1]; 2.53 µM) of 1.06. It also gave a relative viability ([1]; 8 µM) of 0.759, a relative viability (Veliparib; 0.02 µM) of 0.857 and a relative viability (Veliparib; 0.06325 µM) of 0.978. It also gave a relative viability (Veliparib; 0.2 µM) of 0.917, a relative viability (Veliparib; 0.6325 µM) of 0.885 and a relative viability (Veliparib; 2 µM) of 0.922. For the same cell line, the relative viability ([2]; first compound 0.253 µM) was 0.525, the relative viability ([2]; first compound 0.8 µM) was 0.59 and the relative viability ([2]; first compound 2.53 µM) was 0.471. It also gave a relative viability ([2]; first compound 8 µM) of 0.258, a relative viability (Veliparib + Linsitinib; first compound 0.02 µM) of 0.977 and a relative viability (Veliparib + Linsitinib; first compound 0.06325 µM) of 0.845. For the same cell line, the relative viability (Veliparib + Linsitinib; first compound 0.2 µM) was 0.819, the relative viability (Veliparib + Linsitinib; first compound 0.6325 µM) was 0.767 and the relative viability (Veliparib + Linsitinib; first compound 2 µM) was 0.79.
